The structures appear in SMILES notation.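 Exposure lasted 48 hours, with cells grown in 96-well plates and compounds tested at five concentrations. GI50 is the concentration that inhibits growth by half.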 Calls of active or inactive are those of the source. No stated cut-off is given here; in the data, active = GI50 up to about 1.1 µM and inactive = higher.

Some test systems named below: ACHN; CAKI-1; CCRF-CEM; DU-145; HOP-62; HT-29; Hs-578T; K562; LOX IMVI; M14; MCF7; MOLT-4; NCI-H226; NCI-H522; NCI/ADR-RES; OVCAR-4; OVCAR-5; SF-539; SK-MEL-28; UO-31.
What all share (experiment): NCI anticancer screen, dose series, 48 h

As for `COc1ccc(CC2NCCc3cc(OC)c(OC)cc32)cc1Br` (configuration not stated), the GI50 in the assay with ACHN was 33 µM (inactive); in the assay on CAKI-1, 19.7 µM (inactive); with CCRF-CEM it was 29.2 µM (inactive); with DU-145, > 100 µM (inactive); in the assay with HOP-62, 35.6 µM (inactive); in the assay with HT-29, 19.1 µM (inactive). The GI50 in the assay with Hs-578T is 19.2 µM (inactive); in the assay on K562, 16.6 µM (inactive); in the assay with LOX IMVI it was 19.1 µM (inactive); with M14, 16.8 µM (inactive); in the assay on MCF7, > 100 µM (inactive); in the assay on MOLT-4, 20.7 µM (inactive). For the same molecule, the GI50 in the assay with NCI-H226 was 18.6 µM (inactive); in the assay with NCI-H522, 34.4 µM (inactive); in the assay with NCI/ADR-RES it was 62.5 µM (inactive); in the assay on OVCAR-4 it was 38 µM (inactive); with OVCAR-5, 19.5 µM (inactive); with SF-539 it was 77.8 µM (inactive). For the same molecule, the GI50 was 16.6 µM (inactive) in the assay with SK-MEL-28 and 28.2 µM (inactive) in the assay on UO-31.

Turning to `CN(C)[C@H]1CC[C@H]2[C@@H]3CCC4C[C@@H](NC(=O)NC(Cc5ccccc5)c5nccs5)CC[C@]4(C)[C@H]3CC[C@]12C` (some centres not stated), the GI50 is 1.76 µM (inactive) in the assay on ACHN; 1.7 µM (inactive) in the assay on CAKI-1; 0.29 µM (active) with CCRF-CEM; 2.28 µM (inactive) in the assay with DU-145; 0.826 µM (active) in the assay with HOP-62; 0.33 µM (active) in the assay on HT-29. The GI50 was 2.19 µM (inactive) in the assay with Hs-578T; 0.128 µM (active) in the assay with K562; 1.66 µM (inactive) with LOX IMVI; 1.69 µM (inactive) with M14; 0.703 µM (active) in the assay on MCF7; 0.566 µM (active) in the assay on MOLT-4. Moreover, the GI50 with NCI-H226 was 2.09 µM (inactive); in the assay with NCI-H522, 2 µM (inactive); in the assay on NCI/ADR-RES it was 1.77 µM (inactive); in the assay with OVCAR-4, 1.72 µM (inactive); in the assay on OVCAR-5, 1.76 µM (inactive); with SF-539 it was 1.75 µM (inactive). Moreover, the figures for the GI50 in the assay with SK-MEL-28 and with UO-31 were 1.11 µM (active) and 1.69 µM (inactive), respectively.

In the case of `COc1ccccc1-n1cnc2c1=NC(C)(C)NC=2C(N)=O`, the GI50 with ACHN, with CAKI-1, with CCRF-CEM, with DU-145, in the assay on HOP-62 and in the assay with HT-29 was > 100 µM (inactive) each time. Further, the GI50 in the assay with Hs-578T, in the assay with K562, in the assay on LOX IMVI, in the assay on M14, with MCF7 and in the assay on NCI-H226 was > 100 µM (inactive) in each case. In addition, the GI50 in the assay on NCI-H522, in the assay on NCI/ADR-RES, with OVCAR-4, in the assay on OVCAR-5, in the assay with SF-539 and in the assay on SK-MEL-28 was > 100 µM (inactive) throughout.

As to `NC(=O)N/N=C1/c2ccccc2-n2nccc21`, the GI50 in the assay with ACHN was 43.5 µM (inactive); in the assay with CAKI-1 it was 52.5 µM (inactive); in the assay with CCRF-CEM it was 37.6 µM (inactive); in the assay on DU-145 it was > 100 µM (inactive); in the assay on HOP-62, 70.1 µM (inactive); in the assay on HT-29 it was 76.4 µM (inactive). For the same molecule, the GI50 is 85.5 µM (inactive) in the assay with Hs-578T; 75.7 µM (inactive) in the assay with K562; 51.3 µM (inactive) in the assay on LOX IMVI; 71.9 µM (inactive) in the assay on M14; 21.5 µM (inactive) in the assay with MCF7; 47.1 µM (inactive) with MOLT-4. The GI50 in the assay on NCI-H226 is 45.5 µM (inactive); in the assay with NCI-H522, > 100 µM (inactive); in the assay on NCI/ADR-RES, > 100 µM (inactive); in the assay with OVCAR-4, > 100 µM (inactive); in the assay with OVCAR-5, > 100 µM (inactive); in the assay with SF-539 it was 48.5 µM (inactive). Further, the GI50 with SK-MEL-28 was > 100 µM (inactive).

(Values after ChEMBL document CHEMBL1201862, “PubChem BioAssay data set” (2004).)
